Legend:
Sindbis virus SINV = experiment: microbe, parasite or virus in culture; settings: Vero, 24 h, read-out: SINV EC50 (µM)
in vitro [1] = settings: african green monkey, vero cells
Chikungunya virus CHIKV = experiment: microbe, parasite or virus in culture; settings: Vero, 24 h, read-out: CHIKV EC50 (µM)
in vitro [2] = settings: hamster, bhk-21 cells

| SMILES | EC50 (Sindbis virus SINV) | CC50 at 24 h (in vitro [1]) | EC50 (Chikungunya virus CHIKV) | CC50 at 24 h (in vitro [2]) |
| --- | --- | --- | --- | --- |
| C[C@H]1CC[C@]2(NC1)O[C@H]1C[C@H]3[C@@H]4CC[C@H]5C[C@@H](O)CC[C@]5(C)[C@H]4CC[C@]3(C)[C@H]1[C@@H]2C [Tomatidine] | 2.47 µM | 17.2 µM | 5.35 µM | 23.8 µM |
| O=C1Nc2ccc(Cl)cc2[C@@](C#CC2CC2)(C(F)(F)F)O1 [efavirenz] | 0.72 µM | 53.6 µM | 1.33 µM | 40.9 µM |

Reference: publication doi:10.1101/2023.09.29.560149v2 (biorxiv, 2024)
